# Laboratory results reported in paper PMC13357423 (Frontiers in Microbiology, 2026).
# “Also recorded” adds a separate entry of the source. Like-named read-outs stand apart in the source and are kept apart here.
# Key:
# [1] = test system: Mtb H37Rv; assay: Dose response time kill assays (TKA), CFU enumeration; type: cell-based, Mycobacterium tuberculosis
# [2] = Effect of tyloxapol on TBAJ-587 recovery in ST broth without bacteria; type: physicochemical; conditions: ST broth with vs without tyloxapol, no bacteria, polystyrene flasks, 28 days
# Procedure: A low (0.16 mg/L) and a high concentration (1.6 mg/L) were tested and samples taken and quantified at 0, 1, 10 and 28 days after compound addition. Parallel conditions with propranolol (2 μM and 0.2 μm) were included as a drug control; two time-points were sampled for quantification at days 0 and 28 after compound addition. All 648 samples were measured in technical duplicates and verapamil was used as internal standard.
# [3] = test system: regrowth TKA isolates (Mtb H37Rv); assay: microbe, parasite or virus in culture; type: cell-based, Mycobacterium tuberculosis; conditions: for MIC: Mycobacterium tuberculosis
# [4] = test system: M. tuberculosis; design: method as in Lounis et al. (2016); conditions: polypropylene plates in comparison with polystyrene; ref Lounis et al. (2016); cited from earlier work
# [5] = test system: Mtb H37Rv; assay: microbe, parasite or virus in culture; type: cell-based; conditions: Mycobacterium tuberculosis, read-out: MIC BDQ values in six carbon sources
# [6] = test system: Mtb Rv0678 RAVs; design: method as in Sonnenkalb et al., 2023; Villellas et al., 2017; conditions: Rv0678 RAVs in baseline isolates of MDR-TB patients; ref Sonnenkalb et al., 2023; Villellas et al., 2017; cited from earlier work
# [7] = concentrations equal or higher than 5x MIC
SMILES,effect in TKA ([1]; 1x MIC and 2x MIC),"bacterial regrowth ([1]; 1x MIC and 2x MIC, day 28)","bacterial regrowth after 28 days of treatment [1, 7]","time to cleared cultures (bacterial counts under the limit of quantification) [1, 7]",effect in TKA ([1]; concentrations equal to and above 5x MIC),effect of 0.05% tyloxapol on recovery [2],MIC increase compared to the wild-type baseline [3],MIC ([3]; H37RV),"MIC ([3]; read-out: MIC values for TBAJ-587, all regrowth isolates)",increase in the MIC [4],MIC [5],increase in MIC [6]
COc1cc([C@](O)(CCN(C)C)[C@@H](c2cc3cc(Br)ccc3nc2OC)c2cccc(OC)c2F)cc(OC)n1 [TBAJ-587],bacteriostatic effect,resumed growth after 28 days; also recorded: bacterial regrowth by day 28,without bacterial regrowth,≤ 7 days,bactericidal effect,higher TBAJ-587 recovery,4 fold,0.125 µg/mL,0.125 to 0.25 µg/mL,–,–,–
"CC(C)NCC(O)COc1cccc2ccccc12 (stereo not shown) [Propranolol, propranolol, reference compound]",–,–,–,–,–,did not affect its recovery,–,–,–,–,–,–
"COc1nc2ccc(Br)cc2cc1[C@@H](c1ccccc1)[C@@](O)(CCN(C)C)c1cccc2ccccc12 [BDQ, bedaquiline]",–,–,–,–,–,–,–,–,–,4 fold,0.063 to 0.25 µg/mL,2–8 fold
